In ChEMBL document CHEMBL5729684, “Pharmaceutical compounds” (2023):

test: Plaque Reduction Assay: Hep-G2 cells (ECACC, 85011430) were passaged in flasks and seeded in 24-well plates in DMEM containing antibiotics and supplemented with 10% FBS. During inoculation and subsequent incubation, cells were cultured in DMEM containing 2% FBS. 100 plaque forming unit/well of RSV (RSV A2 ECACC, 0709161v) was mixed with eight serial dilutions of compound. Subsequently, 100 μL of the virus/compound mixtures was added to confluent Hep-G2 cell monolayers. The cells and virus/compound mixtures were incubated at 37° C. in a humidified 5% CO2 incubator for 2 h prior to removal of the inoculum and addition of 1 mL of overlay (DMEM containing 2% FBS and 0.8% CMC) containing compound dilutions. The cells and were incubated at 37° C. in a humidified 5% CO2 incubator for 2 days.Cells were washed with PBS before adding 75/25% […] EtOH/MeOH, for 3 min. Fixative was removed and plates were washed with PBS. A pre-titrated amount of the primary antibody was added in 200 μL PBS/2% milk powder, and plates incubated for 90 min at 37° C. The plates were washed 3 times with PBS/0.05% Tween20 before addition of rabbit anti-goat horse radish peroxidase in 200 μL PBS/2% milk powder, and incubated for 1 h at 37° C. Following three wash steps with PBS/0.05% Tween20, 200 μL ready-to-use TrueBlue was added and plates were incubated at rt for 10-15 min before washing with water. After removal of water, plates were air-dried in the dark.Plates were scanned and analysed using the Immunospot S6 Macro analyser, which is equipped with BioSpot analysis software for counting immunostained plaques (virospots). Plaque counts were used to calculate % c infection relative to the mean of the plaque count in the virus control wells for RSV. The EC50 value was calculated as 50% reduction in signal, respectively, by interpolation of inhibition curves fitted with a 4-parameter nonlinear regression with a variable slope in Dotmatics.; conditions: HepG2

Going from `O=C(N[C@H]1N=C(c2ccccc2)c2cccc(F)c2NC1=O)c1c(-c2ccccc2)nn2cccnc12` to `Cc1nc(NC(C)C)ccc1-c1nn2cccnc2c1C(=O)N[C@H]1N=C(c2ccccc2)c2cccc(F)c2NC1=O`, the EC50 falls from 90 nM to 25 nM (3.6-fold).

Going from `Cc1ccnc2c(C(=O)N[C@H]3N=C(c4ccccc4)c4cccc(F)c4NC3=O)c(-c3ccccc3F)nn12` to `Cc1cc(NC(C)C)ncc1-c1nn2cccnc2c1C(=O)N[C@H]1N=C(c2ccccc2)c2cccc(F)c2NC1=O`, the EC50 rises from 27 nM to 74 nM (2.7-fold). The first is the more potent here.

Molecule `Cc1nc(NC(C)C)ccc1-c1nn2cccnc2c1C(=O)N[C@H]1N=C(c2ccccc2)c2ccccc2NC1=O` has an EC50 of 41 nM.
